pIC50: −log10 of the molar value. Activity calls are given as the source filed them. How the calls were made is not given here.
Molecular target: Perilipin-5 (Homo sapiens) + 1-acylglycerol-3-phosphate O-acyltransferase ABHD5 (Homo sapiens) (UniProt Q00G26+Q8WTS1)
Experiment: PubChem AID 652130
Conditions: ABHD5/PLIN5 interaction, luminescence, HEK293T-produced proteins

Sequence of Perilipin-5 (Homo sapiens) + 1-acylglycerol-3-phosphate O-acyltransferase ABHD5 (Homo sapiens) (Q00G26 whole entry, looked up): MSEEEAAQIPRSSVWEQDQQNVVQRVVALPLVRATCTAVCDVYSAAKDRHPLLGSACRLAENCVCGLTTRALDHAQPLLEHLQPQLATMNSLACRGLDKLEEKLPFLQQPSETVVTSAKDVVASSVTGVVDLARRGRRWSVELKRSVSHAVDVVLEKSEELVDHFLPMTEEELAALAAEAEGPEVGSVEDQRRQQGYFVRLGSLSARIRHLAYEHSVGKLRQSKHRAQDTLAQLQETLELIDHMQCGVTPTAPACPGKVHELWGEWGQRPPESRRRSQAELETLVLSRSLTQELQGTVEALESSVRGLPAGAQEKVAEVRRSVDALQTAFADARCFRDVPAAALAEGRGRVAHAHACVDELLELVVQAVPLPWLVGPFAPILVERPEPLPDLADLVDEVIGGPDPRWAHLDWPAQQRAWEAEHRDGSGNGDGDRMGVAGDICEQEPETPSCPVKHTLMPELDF
Sequence of Perilipin-5 (Homo sapiens) + 1-acylglycerol-3-phosphate O-acyltransferase ABHD5 (Homo sapiens) (Q8WTS1 whole entry, looked up): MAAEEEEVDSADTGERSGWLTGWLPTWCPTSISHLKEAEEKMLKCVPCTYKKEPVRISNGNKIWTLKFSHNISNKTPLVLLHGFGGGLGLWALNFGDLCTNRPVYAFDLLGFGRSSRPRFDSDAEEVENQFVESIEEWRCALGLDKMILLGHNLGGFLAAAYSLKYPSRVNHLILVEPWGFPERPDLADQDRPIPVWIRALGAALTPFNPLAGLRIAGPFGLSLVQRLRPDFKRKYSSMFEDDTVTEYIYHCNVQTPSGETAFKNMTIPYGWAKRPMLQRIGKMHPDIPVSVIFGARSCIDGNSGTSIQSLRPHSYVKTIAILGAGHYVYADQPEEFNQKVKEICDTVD

| IC50 | pIC50 | Structure (SMILES) |
| --- | --- | --- |
| > 39.8 µM (inactive) |  | CN1C(=O)c2ccccc2Oc2ccc(NC(=O)c3cc4ccccc4[nH]3)cc21 |
|  | 5.25 | CN1C(=O)c2ccccc2Sc2ccc(NC(=O)NCCc3cccs3)cc21 |
| > 39.8 µM (inactive) |  | CN1C(=O)c2ccccc2Oc2ccc(NC(=O)c3cccs3)cc21 |
| > 39.8 µM (inactive) |  | CN(C)CCCN(C(=O)c1cc2ccccc2oc1=O)c1nc2ccc(Cl)cc2s1 |
| > 39.8 µM (inactive) |  | CCCC(=O)Nc1ccc2c(c1)C(=O)N(C)c1cc(C)ccc1O2 |
|  | 5.47 | Cc1ccc(CS(=O)(=O)c2ncc(Cl)c(C(=O)NCc3ccc4c(c3)OCO4)n2)cc1 |
|  | 5.55 | COc1ccc(CCNC(=O)c2nc(S(=O)(=O)Cc3ccc(F)cc3)ncc2Cl)cc1OC |
| > 39.8 µM (inactive) |  | CN(C)CCCN(C(=O)CCc1ccccc1)c1nc2ccc(Cl)cc2s1 |
|  | 5.21 | CCCS(=O)(=O)c1ccc(Cl)c(C(=O)Nc2ccc(C(=O)OCC)cc2)c1 |
| > 39.8 µM (inactive) |  | CCCCCNC(=O)Nc1ccc2c(c1)Sc1ccccc1C(=O)N2C |
| inactive |  | CCCNC(=O)Nc1ccc2c(c1)N(CC)C(=O)c1ccccc1S2 |
| inactive |  | CCCCCCCNC(=O)Nc1ccc2c(c1)Sc1ccccc1C(=O)N2C |
|  | 5.57 | Cc1ccc(CS(=O)(=O)c2ncc(Cl)c(C(=O)Nc3cccc4ccccc34)n2)cc1 |
| > 39.8 µM (inactive) |  | COc1ccc(OCC(=O)Nc2ccc3c(c2)N(C(C)C)C(=O)c2ccccc2O3)cc1 |
|  | 5.36 | CN1C(=O)c2ccccc2Sc2ccc(NC(=O)NCCc3ccccc3)cc21 |
| > 39.8 µM (inactive) |  | CCCCCCNC(=O)Nc1ccc2c(c1)Sc1ccccc1C(=O)N2C |
|  | 5.33 | NS(=O)(=O)c1ccc(NC(=O)c2nc(S(=O)(=O)Cc3ccccc3)ncc2Cl)cc1 |
| > 39.8 µM (inactive) |  | CN(C)CCCN(C(=O)Cc1ccc(F)cc1)c1nc2ccc(Cl)cc2s1 |
|  | 5.75 | O=C(c1nc(S(=O)(=O)Cc2ccccc2)ncc1Cl)N(Cc1ccccc1)Cc1ccco1 |
|  | 5.63 | O=C(Nc1ccc2ccccc2c1)c1nc(S(=O)(=O)Cc2ccccc2)ncc1Cl |
| > 39.8 µM (inactive) |  | CCCC(=O)Nc1ccc2c(c1)C(=O)N(C)c1ccccc1O2 |
|  | 5.61 | Cc1ccc(CS(=O)(=O)c2ncc(Cl)c(C(=O)Nc3cccc(C(F)(F)F)c3)n2)cc1 |
| > 39.8 µM (inactive) |  | CC(C)N1C(=O)c2ccccc2Oc2ccc(NC(=O)c3ccccc3)cc21 |
|  | 5.70 | CN1C(=O)c2ccccc2Sc2ccc(NC(=O)NCCCc3ccccc3)cc21 |

Continued, molecule first:

| Structure (SMILES) | IC50 | pIC50 |
| --- | --- | --- |
| Cc1ccc(CS(=O)(=O)c2ncc(Cl)c(C(=O)N3CCN(C)CC3)n2)cc1 |  | 5.23 |
| Cc1ccc(NC(=O)c2nc(S(C)(=O)=O)ncc2Cl)cc1 |  | 5.42 |
| O=C(C1COc2ccccc2O1)N1CCN(S(=O)(=O)c2ccc3c(c2)OCCO3)CC1 (configuration not stated) | > 39.8 µM (inactive) |  |
| CCc1ccc2c(CC(=O)N3CCN(S(=O)(=O)c4ccc5c(c4)OCCO5)CC3)coc2c1 |  | 5.46 |
| Cc1ccc2c(CC(=O)N3CCN(S(=O)(=O)c4ccc5c(c4)OCCCO5)CC3)coc2c1C |  | 5.31 |
| COc1ccc(CC(=O)N2CCN(S(=O)(=O)c3ccc4c(c3)OCCCO4)CC2)cc1 | > 39.8 µM (inactive) |  |
| CCS(=O)(=O)c1ncc(Cl)c(C(=O)Nc2ccc(S(N)(=O)=O)cc2)n1 |  | 5.08 |
| CS(=O)(=O)c1ncc(Cl)c(C(=O)Nc2ccc(C(F)(F)F)cc2)n1 |  | 5.79 |
| CN(C)CCCN(C(=O)C1CCCCC1)c1nc2cc(Br)ccc2s1 | > 39.8 µM (inactive) |  |
| CCCS(=O)(=O)c1ncc(Cl)c(C(=O)Nc2ccc(C(=O)OC)cc2)n1 |  | 5.20 |
| CCS(=O)(=O)c1ncc(Cl)c(C(=O)Nc2ccc(C)cc2)n1 |  | 5.37 |
| CCCC(=O)N(CCCN1CCOCC1)c1nc2ccc(Cl)cc2s1 | > 39.8 µM (inactive) |  |
| O=C(Cc1ccc2c(c1)CCCC2)N1CCN(S(=O)(=O)c2ccc3c(c2)OCCO3)CC1 | inactive |  |
| O=C(Cc1cccc(F)c1)N1CCN(S(=O)(=O)c2ccc3c(c2)OCCO3)CC1 | > 39.8 µM (inactive) |  |
| CN(C)CCCN(C(=O)C1CCCCC1)c1nc2cc(Cl)ccc2s1 | > 39.8 µM (inactive) |  |
| O=C(CCc1nc2ccccc2s1)N1CCN(S(=O)(=O)c2ccc3c(c2)OCCO3)CC1 | inactive |  |
| Cc1ccc2cc(CC(=O)N3CCN(S(=O)(=O)c4ccc5c(c4)OCCO5)CC3)oc2c1 | inactive |  |
| O=C(CCc1c[nH]c2ccccc12)N1CCN(S(=O)(=O)c2ccc3c(c2)OCCO3)CC1 | > 39.8 µM (inactive) |  |
| Cc1ccc(CS(=O)(=O)c2ncc(Cl)c(C(=O)Nc3nnc(C(C)C)s3)n2)cc1 | > 39.8 µM (inactive) |  |
| CC(NC(=O)CN1CCN(S(=O)(=O)c2ccc3c(c2)OCCCO3)CC1)c1cc2ccccc2o1 (configuration not stated) | > 39.8 µM (inactive) |  |
| CN(C(=O)c1nc(S(C)(=O)=O)ncc1Cl)c1ccccc1 |  | 5.44 |
| COc1ccc(CC(=O)N2CCCN(S(=O)(=O)c3ccc(C)cc3)CC2)cc1OC | > 39.8 µM (inactive) |  |
| O=C(CCn1cnc2ccccc21)N1CCN(S(=O)(=O)c2ccc3c(c2)OCCO3)CC1 | > 39.8 µM (inactive) |  |

— PubChem BioAssay AID652130 (The Scripps Research Institute Molecular Screening Center, 2013)
